Experiments:
seizures in rats = assay: ED50 for preventing seizures in rats; assay type: in vivo; conditions: Rattus norvegicus, depending on the time and experiment type
[1] = system: rats subjected to Li-pilo induced SE; assay: Example 1: latency to and frequency of spontaneous recurrent seizures (SRS), lithium-pilocarpine model; assay type: in vivo, rat
Protocol: The bilateral EEG cortical activity was recorded during the whole duration of SE and behavioral changes were noted.
(§1) The effects of increasing doses of the Test Compound were studied on 3 groups of rats. The animals of the first group received 10 mg/kg of the test compound, i.p., 1 h after the onset of SE (pilo-TC10) while the animals of groups 2 and 3 received 30 and 60 mg/kg of the Test Compound (pilo-TC30 and pilo-TC60), respectively.
(§2) The control group received saline instead of pilocarpine and the Test Compound (saline-saline). […] Pilo-DZP received a second injection of 1 mg/kg DZP on the day of SE at about 10 h after the first one. Thereafter, Pilo-DZP and saline-saline rats received twice daily an equivalent volume of saline.
The effects of the test compound on the EEG and on the latency to occurrence of SRS were investigated by daily video recording of the animals for 10 h per day and the recording of the electrographic activity twice a week for 8 h.
To calculate the frequency of SRS in pilocarpine-exposed rats, the seizure severity and distinguished stage III (clonic seizures of facial muscles and anterior limbs) and stage IV-V seizures (rearing and falling) was measured. The frequency of stage III SRS per week in pilo-DZP and pilo-test compound rats was variable amongst the groups. It was low, constant in the pilo-DZP and pilo-TC60 (with early SRS onset) groups during the first 3 weeks and had disappeared during the 4th week in the pilo-DZP group. […] The frequency of more severe stage IV-V SRS was highest during the first week in most groups, except pilo-TC30 and TC60 with late seizure onset where the SRS frequency was constant over the whole 4 weeks in TC30 group and over the first two weeks in the pilo-TC60 group with late SRS onset in which no stage IV-V seizures where no seizures recorded after the second week.

[2] = Blood levels in rats, oral administration of Test Compound for 8 days (toxicology studies); assay type: in vivo; conditions: rat; for Cmax at 8 days: blood
Excerpt: In toxicology studies in rats, oral administration of Test Compound (TC) for 8 days produced the following C max and AUC: […]

[3] = system: rats subjected to Li-pilo induced SE; assay: Example 1: Timm staining, mossy fiber sprouting in hippocampus; assay type: in vivo, rat; conditions: for Timm score: 60 mg/kg
Protocol: At 2 months after the onset of spontaneous recurrent seizures, mossy fiber sprouting was examined on rats in the chronic period exposed to the test compound or DZP and in 3 saline-saline rats. Animals were deeply anaesthetized and perfused transcardially with saline followed by 100 ml of 1.15% (w/v) Na2S in 0.1 M phosphate buffer, and 100 ml of 4% (v/v) formaldehyde in 0.1 M phosphate buffer. Brains were removed from skull, post-fixed in 4% formaldehyde during 3-5 h and 40 μm sections were cut on a sliding vibratome and mounted on gelatin-coated slides.
The following day, sections were developed in the dark in a 26° C. solution of 50% (w/v) arabic gum (160 ml), sodium citrate buffer (30 ml), 5.7% (w/v) hydroquinone (80 ml) and 10% (w/v) silver nitrate (2.5 ml) during 40-45 min. The sections were then rinsed with tap water at 40° C. during at least 45 min, rinsed rapidly with distilled water and allowed to dry. They were dehydrated in ethanol and coverslipped.
Mossy fiber sprouting was evaluated according to criteria previously described in dorsal hippocampus (Cavazos et al., 1991, J Neurosci 11:2795-2803.), which are follows: 0—no granules between the tips and crest of the DG; 1—sparse granules in the supragranular region in a patchy distribution between the tips and crest of DG; 2—more numerous granules in a continuous distribution between the tips and crest of DG; 3—prominent granules in a continuous pattern between tips and crest, with occasional patches of confluent granules between tips and crest; 4—prominent granules that form a confluent dense laminar band between tips and crest and 5—confluent dense laminar band of granules that extends into the inner molecular layer.

[4] = Example 3 study 2: repeated oral dose (q12h, 1 wk) pharmacokinetics in healthy men; assay type: in vivo, human
Protocol: Two single-center, placebo-controlled, double-blind, ascending-dose studies were conducted in healthy men ≧18 and ≦45 yrs. In study 1 (N=70), subjects were randomly assigned to a single dose of Test Compound (TC) or placebo. Escalated doses were received as 100, 250, 400, 750, 1000, 1250, and 1500 mg. PK parameters were estimated from plasma and urine samples collected up to 3 days post dose. Study 2 (N=53) evaluated the PK of repeated doses of Test Compound (TC) in 4 dose groups (100, 250, 500, or 750 mg). Within each group, 12 subjects were assigned to q12h treatment with drug or placebo for 1 wk and were crossed over after a 14-day washout period. PK parameters were estimated from plasma and urine samples on days 1 and 7.

[5] = system: rats subjected to Li-pilo induced SE; assay: Example 1: quantification of cell densities in hippocampus, thalamus and cortex after Li-pilo SE; assay type: in vivo, rat
Protocol: as §1, §2
Quantification of cell densities was performed at 6 days after SE on 8 pilo-DZP, 8 pilo-TC10, 7 pilo-TC30, 7 pilo-TC60, and 6 saline-saline rats. […] Counts involved only cells larger than 10 μm, smaller ones being considered as glial cells.
For the comparison of the characteristics of SE in pilo-saline and pilo-test compound animals, a non-paired Student's t-test was used. The comparison between the number of rats seizing in both groups was performed by means of a Chi square test. For neuronal damage, statistical analysis between groups was performed using ANOVA followed by a Fisher's test for multiple comparisons using the Statview software (Fisher R A, 1946a, Statistical Methods for Research Workers (10th edition) Oliver & Boyd, Edinburgh; Fisher R A, 1946b, The Design of Experiments (4th edition) Oliver & Boyd, Edinburgh)

[6] = repeated doses q12h, 100-750 mg

NC(=O)OC[C@@H](O)c1ccccc1Cl [TC]
ED50 (seizures in rats): 4 to 30 mg/kg | rats in which occurrence of spontaneous seizures was delayed ([1]; TC 60 mg/kg (4 out of 11)): 36% | mean delay to epilepsy in subgroup vs other groups of animals ([1]; TC 60 mg/kg, subgroup): about 9 fold longer | latency to SRS ([1]; TC60, subgroup with latency similar to other groups (n=7)): 17.6 ± 8.7 days | latency to SRS, mean ([1]; TC60, subgroup with much longer delay (n=4)): 149.8 ± 36.0 days | frequency of stage IV-V SRS ([1]; first week, TC10, TC30 and TC60 (with early SRS onset) groups): 2.3-6.1 SRS per week | frequency of stage III SRS ([1]; pilo-TC10 group, weeks 3 and 4): significantly increased over pilo-DZP values | latency to SRS ([1]; pilo-TC10 rats): 15.4 ± 5.1 days | latency to SRS ([1]; pilo-TC30 rats): 18.9 ± 9.0 days | frequency of stage IV-V SRS ([1]; weeks 2-4, pilo-TC60 group with early SRS onset): 0.6-0.9 seizure per week | Cmax at 8 days ([2]; oral 30 mg/kg/day for 8 days): 9330 ng/mL | Cmax at 8 days ([2]; oral 100 mg/kg/day for 8 days): 20600 ng/mL | Cmax at 8 days ([2]; oral 300 mg/kg/day for 8 days): 70300 ng/mL | AUC ([2]; oral 30 mg/kg/day for 8 days): 97.32 micrograms-hour/mL | AUC ([2]; oral 100 mg/kg/day for 8 days): 230.33 micrograms-hour/mL | AUC ([2]; oral 300 mg/kg/day for 8 days): 525.95 micrograms-hour/mL | Timm score ([3]; subgroup with early SRS occurrence): 1.8±0.6 | Timm score ([3]; subgroup with late occurrence or absence of SRS): 1.2±0.6 | Timm score in the upper blade of the dentate gyrus, mean ([3]; pilo-TC10 rats): 1.5±0.6 | Timm score in the upper blade of the dentate gyrus, mean ([3]; pilo-TC30 rats): 2.6±1.0 | Timm score in the upper blade of the dentate gyrus, mean ([3]; whole group of pilo-TC60 rats): 1.5±0.7 | Mean CLR relative to mean oral clearance ([4]; healthy men): < 5 % of the mean oral clearance | Tmax at 1 wk ([4]; male, human, plasma, oral, repeated doses q12h, 100-750 mg): 1.3 to 1.8 h | half-life at 1 wk ([4]; male, human, plasma, oral, repeated doses q12h, 100-750 mg, read-out: mean t1/2 at steady state): 714 to 768 min | accumulation: Cmax and AUC0-12 on day 7 vs. day 1 ([4]; q12h administration, listed as Test Compound): about two-fold | Steady-state Cmax and AUC0-12 dose dependence ([4]; repeated doses 100-750 mg): increased in proportion to the dose | mean CL/F at steady state [4, 6]: 3.40 to 3.78 L/h | time for plasma concentrations to reach steady state [4, 6]: 3 to 4 days | linearity of PK ([4]; single (100-1500 mg) and repeated (100-750 mg bid) doses, healthy adult men): linear | protective effects at lowest dose tested in Example 1 ([5]; 10 mg/kg/day): minimal or no protective effects | protection in CA3b ([5]; 60 mg/kg): significantly neuroprotective | reduction of neuronal damage, lateral thalamic nucleus ([5]; 60 mg/kg dose): 65% | reduction of neuronal damage, mediodorsal thalamic nucleus ([5]; 60 mg/kg dose): 42% | neuroprotection compared to pilo-DZP rats, ventral entorhinal cortex layers III-IV ([5]; TC60 administration): 31% | reduction of neuronal damage recorded in pilo-DZP rats, piriform cortex layer II ([5]; TC60 treatment): 41% | reduction of neuronal damage recorded in pilo-DZP rats, piriform cortex layers III-IV ([5]; TC60 treatment): 44% | worsening of cell loss compared with pilo-DZP rats, dorsal entorhinal cortex layers III-IV ([5]; pilo-TC10 rats): 28 % more damage | worsening of cell loss compared with pilo-DZP rats, ventral entorhinal cortex layers III-IV ([5]; pilo-TC10 rats): 35 % more damage | cell loss, CA1 pyramidal layer ([5]; pilo-TC30 animals): 35% | cell loss, CA1 pyramidal layer ([5]; pilo-TC60 animals): 16% | cell loss in the hilus of dentate gyrus ([5]; pilo-test compound animals (10, 30, 60 mg/kg)): 69-72% | protection in the CA3a area ([5]; test compound 10, 30, 60 mg/kg): did not afford any protection

Source: patent US20110152362A1, “METHODS OF TREATING EPILEPTOGENESIS AND EPILEPSY” (priority 2004, published 2011)
